Results published in publication PMC8233136, “Monomeric bile acids modulate the ATPase activity of detergent-solubilized ABCB4/MDR3” (Journal of Lipid Research, 2021).

Tests used:
[1] = Critical micelle concentration by Hoechst 33342 fluorescence in ATPase reaction buffer; type: physicochemical; conditions: 50 mM Tris-HCl pH 7.5, 100 mM NaCl, 37°C; no FC-16, MgCl2 or ATP
Experimental: CMC values were determined as described ([61]). […] 96-well plates suitable for fluorescence spectroscopy (Greiner Bio-One, FIA plate, black, flat bottom, medium binding) were used. […] CMCs of the bile acids were determined in ATPase reaction buffer (50 mM Tris-HCl, pH 7.5 (at 37°C), 100 mM NaCl) containing no FC-16, MgCl2, or ATP at 37°C using a Tecan M200 plate reader (Atlantic lab equipment). Bile acids were dissolved either in ddH2O or in 100% DMSO (as stated in “Lipid, cholesterol and bile acid preparation”) at a concentration of 100 mM. […] In case of hydrophobic bile acids, which were dissolved in DMSO, DMSO concentration was adapted to 1% in all wells. […] After background correction, fluorescence data were analyzed using Prism (version 8, GraphPad) with Equation 4:(4) F=Fmax∗(c[BA]−cmc)/(K0.5−cmc)+(c[BA]−cmc)
The measured fluorescence at each bile acid concentration (c[BA]) is represented by F, while Fmax is the maximal fluorescence, K0.5 is the midpoint of the function, and cmc is the critical micelle concentration of the bile acid.

[2] = Solubility / precipitation of bile acids under assay conditions; type: physicochemical; conditions: assay setup, DMSO stock
Experimental: The sodium salts of conjugated and unconjugated bile acids were dissolved in double-distilled water (ddH2O) or 100% DMSO at a concentration of 100 mM. While glyco-/tauro-/cholic acid (G/T/CA), glyco-/tauro-/chenodeoxycholic acid (G/T/CDCA) were dissolved in ddH2O water, glyco-/tauro-/deoxycholic acid (G/T/DCA), glyco/-tauro-/ursodeoxycholic acid (G/T/UDCA) as wells as Nor-UDCA and taurolithocholic acid (TLCA) were dissolved in DMSO. Glyco- and unconjugated lithocholic acid could not be dissolved in DMSO in the appropriate concentrations and therefore excluded. […] Modulation of the ATP hydrolysis by bile acid was determined in a concentration-dependent manner from 0 to 1,000 μM bile acids.

C[C@H](CCC(=O)NCC(=O)O)[C@H]1CC[C@H]2[C@@H]3CC[C@@H]4C[C@H](O)CC[C@]4(C)[C@H]3CC[C@]12C [Glycolithocholic acid]
Critical micelle concentration (cmc) [1]: Precipitate ^a
Concentration above which the bile acid precipitated [2]: higher than 100 μM
